Results published in patent US9867795B2, “Nitrated lipids and methods of making and using thereof” (The UAB Research Foundation, priority 2004, dated 2018).

Assays:
[1] = target: T1, mineralocorticoid receptor (MR) (Homo sapiens, UniProt P08235); assay: CV-1 Gal4 ligand binding domain luciferase reporter assay; type: cell-based; conditions: LNO2 1 μM; CV-1 cells
T1 construct: expressed in transfected cells; host or cells: CV-1 cells
T1 sequence (P08235 726-964 limits assumed): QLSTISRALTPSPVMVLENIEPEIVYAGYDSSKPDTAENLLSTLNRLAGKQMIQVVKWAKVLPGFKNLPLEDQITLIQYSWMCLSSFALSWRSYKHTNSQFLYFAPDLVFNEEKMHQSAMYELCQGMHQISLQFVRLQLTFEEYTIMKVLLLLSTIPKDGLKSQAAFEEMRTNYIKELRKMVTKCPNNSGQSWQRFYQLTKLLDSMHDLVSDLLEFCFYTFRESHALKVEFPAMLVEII
Description: (§1) Cell Transient Transfection Assay. CV-1 cells from ATCC (Manassas, Va.) were grown to ˜85% confluence in DMEM/F12 supplemented with 10% FBS, 1% penicillin-streptomycin. Then, cells were transiently co-transfected with a plasmid containing the luciferase gene under regulation by four Gal4 DNA binding elements (UASG×4 TK-Luciferase, a gift from Dr. Ronald M. Evans), in concert with plasmids containing the ligand binding domain for the different nuclear receptors fused to the Gal4 DNA binding domain. For assessing full-length PPAR receptors, CV-1 cells were transiently co-transfected with a plasmid containing the luciferase gene under the control of three tandem PPAR response elements (PPRE) (PPRE×3 TK-Luciferase) and hPPARγ, hPPARα or hPPARδ expression plasmids, respectively. In all cases, fluorescence protein (GFP) expression plasmid was co-transfected as the control for the transfection efficiency. Twenty-four hours after the transfection, cells were cultured for another 24 hours in Optium-MEM (Invitrogen, Carlsbad, Calif.). Then, cells were treated with different compounds as indicated in figures for 24 hours in Optium-MEM. Reporter luciferase assay kits from Promega (Madison, Wis.) were used to measure the luciferase activity according to the manufacturer's instructions with a luminometer (Victor II, Perkin-Elmer). Luciferase activity was normalized by GFP units. Each condition was performed at least in triplicates in each experiment.

[2] = target: T2, progesterone receptor (PR) (Homo sapiens, UniProt P06401); assay: as above; type: cell-based; conditions: LNO2 1 μM; CV-1 cells
T2 construct: expressed in transfected cells; host or cells: CV-1 cells
T2 sequence (P06401 679-913 limits assumed): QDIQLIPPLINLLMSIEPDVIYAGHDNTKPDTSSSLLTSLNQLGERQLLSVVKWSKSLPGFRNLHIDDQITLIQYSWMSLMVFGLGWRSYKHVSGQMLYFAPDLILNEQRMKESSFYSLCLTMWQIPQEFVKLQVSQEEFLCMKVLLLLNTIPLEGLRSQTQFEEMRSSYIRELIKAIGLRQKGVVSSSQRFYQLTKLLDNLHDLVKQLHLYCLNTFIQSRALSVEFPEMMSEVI
Description: as §1

[3] = target: T3, retinoic X receptor α (RXRα) (Homo sapiens, UniProt P19793); assay: as above; type: cell-based; conditions: LNO2 1 μM; CV-1 cells
T3 construct: expressed in transfected cells; host or cells: CV-1 cells
T3 sequence (P19793 227-458 limits assumed): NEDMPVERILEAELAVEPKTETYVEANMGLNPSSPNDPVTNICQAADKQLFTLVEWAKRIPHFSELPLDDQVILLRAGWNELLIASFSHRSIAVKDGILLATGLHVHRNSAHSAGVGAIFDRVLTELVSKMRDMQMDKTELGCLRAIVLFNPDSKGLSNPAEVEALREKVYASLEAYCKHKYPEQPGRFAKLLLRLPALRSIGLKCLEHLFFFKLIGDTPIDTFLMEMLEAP
Description: as §1

[4] = •NO release from LNO2 by oxymyoglobin oxidation
Description: Apparent •NO formation was calculated from extents of oxymyoglobin oxidation in the visible wavelength range (spectrum) and at 580 nm (kinetic mode). Initial oxymyoglobin oxidation was calculated using a UV probe Version 1.10 (ε580 14.4 mM^−1 cm^−1). Decomposition of the NO2 group was followed at 268 nm and the appearance of oxidized products at 320 nm.
To monitor the concomitant decomposition of the parent LNO2 molecule, its UV spectrum was first analyzed. […] The decrease in absorbance at 268 nm paralleled •NO release, as detected by both EPR and oxymyoglobin oxidation.
The formation of •NO was followed by EPR (measuring cPTI formation) in the presence of different concentrations of octyl-β-glucopyranoside (OG) and octyl-thio-β-glucopyranoside (OTG). The rate of •NO release was constant and not influenced by these detergents until the critical micellar concentration (CMC) for each was achieved, after which •NO formation was inhibited as the volume of the hydrophobic environment increased (FIG. 24A). Similar results were obtained when measuring •NO formation via conversion of oxymyoglobin to metmyoglobin. Apparent •NO release rates remained constant until OG concentration reached ˜2.8 mg/ml (CMC=2.77 mg/ml (11)). […] The inhibition of the NO2 group loss at 268 nm was paralleled by inhibition of the formation of oxidation products at 320 nm, similarly paralleling the detergent-induced inhibition of •NO release observed by EPR and oxymyoglobin-based detection.

[5] = system: NF-kB pathways; assay: NF-kB pathway activity (NFkB-response element luciferase reporter, IkB degradation); type: cell-based; conditions: reporter in response to TNFa; IkB degradation in response to E. coli LPS
[6] = pH dependency of •NO formation from LNO2 (EPR, cPTIO reduction); conditions: 80 μM LNO2, buffers with different pHs
Description: Electron paramagnetic resonance—EPR measurements were performed at room temperature using a Bruker Elexsys E-500 spectrometer equipped with an ER049X microwave bridge and an AquaX liquid sample cell. The following instrument setting were used: modulation frequency, 100 kHz; modulation amplitude, 0.05 G; receiver gain, 60 dB; time constant, 1.28 ms; sweep time, 5.24 s; center field, 3510 G; sweep width, 100 G; power, 20 mW; scan parameter, 16 scans.
Due to limitations of the •NO-cPTIO reaction for quantitating yields of NO, oxymyoglobin was utilized to measure •NO release rates (24).

[7] = LNO2 130 μM, oxymyoglobin 20 μM

10-nitro-9,12-octadecadienoic acid and 12-nitro-9,12-octadecadienoic acid [LNO2]
MR receptor activation [1]: no impact
PR receptor activation [2]: no impact
RXRα receptor activation [3]: no impact
apparent rate constant for •NO release ([4]; 100 mM phosphate buffer, 100 μM DTPA, pH 7.4, oxymyoglobin to metmyoglobin): 9.67e-06 s⁻¹
OG concentration up to which apparent •NO release rates remained constant [4, 7]: ~2.8 mg/mL
OTG concentration at which inhibition of LNO2-dependent •NO release occurred [4, 7]: ~7 mg/mL
activity of NF-kB pathways [5]: inhibits activity of NF-kB pathways
pH of maximal •NO release [6]: 7.4
